According to DBAASP:
In brackets after ≈: the same amount, converted by molar mass. Several values for one entry are separate records, joined by “and”; a condition that tells them apart may be missing. Equal entries are not always repeated.

What was measured:
Assay in all cases: ≥ marks a high value that may be exact or a test limit, other limits are often not marked, values filed in µg/mL are converted to µM
[1] = tested on: Candida albicans NCYC 1467
[2] = tested on: Enterococcus faecalis NCTC 12697
[3] = tested on: Escherichia coli NCTC 10418
[4] = tested on: Klebsiella pneumoniae ATCC 43816
[5] = tested on: Pseudomonas aeruginosa ATCC 27853
[6] = tested on: Staphylococcus aureus NCTC 10788
[7] = tested on: Staphylococcus aureus NCTC 12493
[8] = tested on: Staphylococcus aureus SH1000
[9] = tested on: Acinetobacter baumannii ATCC 19606
[10] = tested on: Candida albicans ATCC 90028
[11] = tested on: Cryptococcus neoformans ATCC 208821
[12] = tested on: Escherichia coli ATCC 25922
[13] = tested on: Klebsiella pneumoniae ATCC 700603
[14] = tested on: Staphylococcus aureus ATCC 43300
[15] = tested on: Acinetobacter baumannii 7226/16
[16] = tested on: Klebsiella pneumoniae ESBL 344/17
[17] = tested on: Pseudomonas aeruginosa 522/17
[18] = tested on: Staphylococcus aureus 1399/17
[19] = tested on: Staphylococcus aureus ATCC 33591
[20] = tested on: Staphylococcus aureus SG511
[21] = tested on: Candida albicans FRR 5580
[22] = tested on: Pseudomonas aeruginosa ATCC 9027
[23] = tested on: Staphylococcus aureus ATCC 25923
[24] = tested on: Staphylococcus aureus

**Q.** Which results are given for `CC(C)C[C@H](NC(=O)[C@H](CCC(N)=O)NC(=O)[C@H](CCC(N)=O)NC(=O)[C@H](C)NC(=O)CNC(=O)[C@H](C)NC(=O)[C@H](CCCCN)NC(=O)CNC(=O)[C@@H](NC(=O)[C@H](CCC(N)=O)NC(=O)[C@H](CCCCN)NC(=O)[C@H](CCCCN)NC(=O)[C@H](CC(C)C)NC(=O)[C@H](Cc1ccc(O)cc1)NC(=O)[C@H](CCCCN)NC(=O)[C@H](C)NC(=O)CNC(=O)[C@H](C)NC(=O)[C@H](CCCCN)NC(=O)[C@H](Cc1ccccc1)NC(=O)[C@H](CC(C)C)NC(=O)[C@H](CO)NC(=O)[C@H](CO)NC(=O)[C@H](Cc1ccccc1)NC(=O)CN)C(C)C)C(N)=O` [GFSSLFKAGAKYLKKQVGKAGAQQL]?
**A.** MIC [1]: ≥ 64 µM; MIC [2]: 16 µM (≈ 42 µg/mL); MIC [3]: 8 µM (≈ 21 µg/mL); MIC [4]: ≥ 128 µM; MIC [5]: 16 µM (≈ 42 µg/mL); MIC [6]: 16 µM (≈ 42 µg/mL); MIC [7]: ≥ 64 µM

**Q.** With `CC[C@H](C)[C@H](NC(=O)[C@H](CCCCN)NC(=O)[C@H](CC(C)C)NC(=O)[C@H](CC(C)C)NC(=O)[C@@H](N)CCCCN)C(=O)N[C@H](C(=O)N[C@@H](CCCCN)C(=O)N[C@@H](CCCCN)C(=O)N[C@H](C(=O)N[C@H](C(=O)NCC(=O)N[C@@H](C)C(=O)N[C@@H](CC(C)C)C(=O)NCC(N)=O)C(C)C)C(C)C)C(C)C` [KLLKIVKKVVGALG] as the molecule, how does the MIC [8] read?
**A.** ≥ 100 µM

**Q.** With `CC(C)C[C@H](NC(=O)[C@H](C)NC(=O)CNC(=O)[C@H](CC(C)C)NC(=O)[C@H](CC(C)C)NC(=O)[C@H](CCCCN)NC(=O)[C@H](CCCCN)NC(=O)[C@H](CC(C)C)NC(=O)[C@H](CC(C)C)NC(=O)[C@H](CCCCN)NC(=O)[C@H](CC(C)C)NC(=O)[C@H](CC(C)C)NC(=O)[C@@H](N)CCCCN)C(=O)NCC(N)=O` [KLLKLLKKLLGALG] as the molecule, how does the MIC [9] read?
**A.** 1 µM (≈ 1.51 µg/mL)

**Q.** And the MIC [10]?
**A.** 11 µM (≈ 16.6 µg/mL)

**Q.** And the MIC [11]?
**A.** 3 µM (≈ 4.52 µg/mL)

**Q.** What about the MIC [12] of the same molecule?
**A.** 1 µM (≈ 1.51 µg/mL)

**Q.** And the MIC [13]?
**A.** 5 µM (≈ 7.54 µg/mL)

**Q.** And the MIC [5]?
**A.** 21 µM (≈ 31.6 µg/mL)

**Q.** And the MIC [14]?
**A.** 3 µM (≈ 4.52 µg/mL)

**Q.** What about the MIC [8] of the same molecule?
**A.** 10 µM (≈ 15.1 µg/mL)

**Q.** Which results are given for `CC[C@H](C)[C@H](NC(=O)[C@H](CCCN=C(N)N)NC(=O)[C@@H](NC(=O)[C@@H]1CCCN1C(=O)[C@@H]1CCCN1C(=O)[C@H](CCCN=C(N)N)NC(=O)[C@H](CCCN=C(N)N)NC(=O)[C@H](Cc1ccccc1)NC(=O)[C@@H]1CCCN1C(=O)[C@H](CC(C)C)NC(=O)[C@H](CCCN=C(N)N)NC(=O)[C@H](Cc1ccccc1)NC(=O)[C@H](CCCN=C(N)N)NC(=O)[C@H](CCCN=C(N)N)NC(=O)[C@H](Cc1ccccc1)NC(=O)[C@@H](N)CCCN=C(N)N)[C@@H](C)CC)C(=O)N[C@@H](Cc1cnc[nH]1)C(N)=O` [RFRRFRLPFRRPPIRIH]?
**A.** MIC [15]: 8 µM and 12.5 µM; MIC [16]: 8 µM and 6.2 µM; MIC [17]: 16 µM (≈ 37.1 µg/mL); MIC [18]: 4 µM and 6.2 µM; MIC [19]: 8 µM (≈ 18.6 µg/mL); MIC [20]: 0.5 µM (≈ 1.16 µg/mL)

**Q.** Which MIC [21] does the source give for `NCCCC[C@H](NC(=O)[C@H](Cc1c[nH]c2ccccc12)NC(=O)[C@H](Cc1c[nH]c2ccccc12)NC(=O)[C@@H](N)CCCN=C(N)N)C(=O)N[C@@H](Cc1c[nH]c2ccccc12)C(=O)N[C@@H](Cc1c[nH]c2ccccc12)C(N)=O` [RWWKWW] here?
**A.** ≥ 61.1 µM

**Q.** And the MIC [22]?
**A.** 30.6 µM (≈ 32 µg/mL)

**Q.** Which MIC [21] does the source give for `NCCCC[C@H](NC(=O)[C@H](Cc1c[nH]c2ccccc12)NC(=O)[C@H](Cc1c[nH]c2ccccc12)NC(=O)[C@H](CCCN=C(N)N)NC(=O)[C@H](Cc1c[nH]c2ccccc12)NC(=O)[C@@H](N)Cc1c[nH]c2ccccc12)C(=O)N[C@@H](Cc1c[nH]c2ccccc12)C(=O)N[C@@H](Cc1c[nH]c2ccccc12)C(N)=O` [WWRWWKWW] here?
**A.** ≥ 45.1 µM

**Q.** What about the MIC [12] of the same molecule?
**A.** 5.64 µM (≈ 7.99 µg/mL)

**Q.** And the MIC [22]?
**A.** 22.5 µM (≈ 32 µg/mL)

**Q.** What about the MIC [23] of the same molecule?
**A.** 5.64 µM (≈ 7.99 µg/mL)

**Q.** What about the MIC [24] of the same molecule?
**A.** 2.82 µM (≈ 4 µg/mL)
